The values below come from patent publication US11987569B2, “Substituted imidazoquinolines as agonists of TLR7” (BIONTECH SE, priority 2017, dated 2024).

One assay has as its system human PBMCs. The experiment in a line: IFN-α induction assay: IFN-α induction by TLR agonists in human PBMCs (Luminex). In kind it is cell-based. Particulars: 24 h incubation; for minimal effective concentration: PBMC; for Minimum effective concentration IFN-α release: Table 2. As to the method:
IFN-α Induction Assay—IFN-α Induction by TLR Agonists in Human PBMCs
Materials and Devices: Bio Plex 200 Luminex device, and BioPlex Manager software; MultiScreen Filter Plates (Millipore, MABVN1250); low binding reaction vials 1.5 ml (Sarstedt, 72.706.600); Activation Buffer: 0.1M Na-dihydrogen phosphate, 0.1M Di-Na hydrogen phosphate pH 6.2; Sulfo-NHS (N-hydroxysulfosuccinimide) solution: 50 mg/ml in water (freshly prepared); EDC solution: 50 mg/ml in water (freshly prepared); Coupling Buffer: PBS; Washing Buffer: PBS+0.05% Tween20; Blocking Buffer: PBS+10 mg/ml BSA+0.05% sodium azide; Assay Buffer: PBS+10 mg/ml BSA;
In each well of a 96-well U-bottom plate 200,000 PBMCs were pre-incubated in medium (RPMI1640−Gibco #61870-044÷10% FBS+1% L-glutamine) for 5 hours at 37° C. and 5% CO2 before the compounds of the present invention or controls were added, respectively. Upon addition of compounds of the present invention or controls, the cells are incubated for another 24 h at 37° C. and 5% Co2.
Luminex assay, Step 1: Coupling of antibody to beads: • transfer a suspension (beads are stored in buffer as provided by manufacturer) of about 5 million MicroPlex Microspheres (=beads) into a low binding reaction vial • centrifuge bead suspension for 1 min at 10,000 g, discard supernatant and resuspend pellet in 160 μl Activation Buffer, repeat once • add 20 μl Sulfo-NHS solution and 20 μl EDC solution, vortex • incubate for 20 min in the absence of light • centrifuge bead suspension for 1 min at 10,000 g, discard supernatant and resuspend pellet in 500 μl Coupling Buffer, repeat once • add capture antibody (CaptureAK eBioscience #BMS160, 5 μg per 1 Mio beads) • incubate 2 h at RT in the absence of light while swaying • centrifuge bead suspension for 1 min at 10,000 g, discard supernatant and resuspend pellet in 500 μl Washing Buffer, repeat once • centrifuge bead suspension for 1 min at 10,000 g, discard supernatant and resuspend pellet in 100 μl Blocking Buffer
Luminex Assay, Step 2: Measurement • add 100 μl Assay Buffer into each filter plate well (seal any unused wells with adhesive tape), then remove buffer • add about 2,000 beads per well per analyte (per analyte, a different bead type with distinct fluorescence color is used), suspended in 50 μL of Assay Buffer • remove buffer and wash twice with 100 μl Washing Buffer per well • per well, add 50 μl sample solution from the (pre-)incubation step (cell supernatant), or Standard (IFN-α standard eBioscience #BMS216MST—concentration gradient, highest standard concentration 2500 pg/ml) or Assay Buffer (as blanks) • shake plate • incubate plate for 2 h at RT in the absence of light, while swaying the plate • wash three times with 100 μl Washing Buffer per well • add 25 μl antibody detection mix (DetectionAK eBioscience #BMS1016BT diluted 1:1000) in Assay Buffer per well, then vortex plate • incubate plate for 1 h at RT in the absence of light, while swaying the plate • wash three times with 100 μl Washing Buffer per well • add 50 μl Streptavidin/PE (diluted 1:200 in Assay Buffer) per well, then vortex plate • incubate plate for 10 min at RT in the absence of light, while swaying the plate • wash three times with 100 μl Washing Buffer per well • add 100 μl Assay Buffer per well, then vortex plate • start Luminex measurement according to manufacturer's instructions, measuring at least 50 beads per well per analyte
The compounds were tested at 8 different concentrations (1 μM, 0.3 μM, 0.1 μM, 0.03 μM, 0.01 μM 0.003 μM, 0.001 μM, 0.0003 μM) using a half-logarithmic dilution. The release of Interferon-alpha (IFN-α) presents a bell-shaped distribution within the dilution window. The minimum effective concentration (MEC) is the lowest concentration required to induce the desired IFN-α release. It represents the outset of the bell-shaped distribution and is given in nM. […]

The subject of assay [1] is superficial basal cell carcinomas. Conditions: marketed as 5% cream (Aldara); cited from earlier work.
The next assay has as its system IFN-α secretion. Briefly: In vivo profiling: plasma IFN-α after single intravenous infusion in cynomolgus monkeys (ELISA). Particulars: cynomolgus monkey, 30 min i.v. infusion. As to the method: In the following studies, a compound according to the invention was examined in an in vivo cynomolgus monkey model. It is evaluated whether and at which applied dose the compounds cause secretion of IFN-α.
In particular, a defined single dose of test compound was applied intravenously to cynomolgus monkeys by a thirty minute infusion. At several time points after initiation of the intravenous compound application, blood samples (0.5 mL for approximately 0.25 mL plasma) were collected from the vena cephalica antebrachii or vena saphena into K3EDTA tubes from the animals. Blood samples were stored on crushed ice prior to centrifugation. Plasma was obtained by centrifugation at 4° C. and approximately 1800 g for 10 minutes and was aliquoted into labeled micro tubes and stored frozen at −70° C. or below. Plasma samples were thawed, diluted and used for determination of IFN-α levels using an IFN-α Elisa Kit (e.g. VeriKine™ Cynomolgus/Rhesus IFN-α ELISA Kit) according to the manufacturer's instructions.

Setting [2] is: comparative compounds, Table 2, read-out: Minimum effective concentration IFN-α release.
Setting [3] is: lowest concentration inducing the desired IFN-α release, Table 1, read-out: Minimum effective concentration IFN-α release.

Like-named read-outs stand apart in the source and are kept apart here.

Turning to `COCCc1nc2c(N)nc3ccccc3c2n1CCCCN(C(N)=O)C1CCS(=O)(=O)C1` (stereo not drawn) [15′, reference compound], the minimal effective concentration with human PBMCs (setting [2]) is 0.1 µM.

For `CCc1nc2c(N)nc3ccccc3c2n1CCCCN(C(=O)OC)C1CS(=O)(=O)C1` [Example 8, Methyl (4-(4-amino-2-ethyl-1H-imidazo[4,5-c]quinolin-1-yl)butyl)(1,1-dioxidothietan-3-yl)carbamate], the minimal effective concentration in the assay on human PBMCs (setting [3]) was determined as 0.03 µM.

Regarding `CC(C)Cn1cnc2c(N)nc3ccccc3c21` [Imiquimod, imiquimod], in assay [1], the “5-year clearance of superficial basal cell carcinomas” value was “approx. 80%”.

Take `CCc1nc2c(N)nc3ccccc3c2n1CCCCN(C(=O)OC)C1CCS(=O)(=O)C1` (stereo not drawn) [8′, reference compound]: the minimal effective concentration in the assay with human PBMCs (setting [2]) came to 0.1 µM.

Turning to `CCNCc1nc2c(N)nc3ccccc3c2n1CCCCN(C(=O)OC)C1CCS(=O)(=O)C1` (stereo not drawn) [11′, reference compound], the “Minimum effective concentration IFN-α release” value with human PBMCs (comparative compounds) is “inactive”.

`COCCc1nc2c(N)nc3ccccc3c2n1CCCCN(C(C)=O)C1CCS(=O)(=O)C1` (stereo not drawn) [13′, reference compound]: in the assay with human PBMCs (setting [2]), the minimal effective concentration is 0.03 µM.

As to `COCCc1nc2c(N)nc3ccccc3c2n1CCCCN(C(N)=O)C1CS(=O)(=O)C1` [Example 15, 1-(4-(4-Amino-2-(2-methoxyethyl)-1H-imidazo[4,5-c]quinolin-1-yl)butyl)-1-(1,1-dioxidothietan-3-yl)urea], the minimal effective concentration in the assay with human PBMCs (setting [3]) was found to be 0.02 µM.

In the case of `CCNCc1nc2c(N)nc3ccccc3c2n1CCCCN(C(N)=O)C1CS(=O)(=O)C1` [Example 12, 1-(4-(4-Amino-2-((ethylamino)methyl)-1H-imidazo[4,5-c]quinolin-1-yl)butyl)-1-(1,1-dioxidothietan-3-yl)urea], in the assay on human PBMCs (setting [3]), the minimal effective concentration stood at 3 µM.

Take `CCNCc1nc2c(N)nc3ccccc3c2n1CCCCN(C(=O)OC)C1CS(=O)(=O)C1` [Example 11, Methyl (4-(4-amino-2-((ethylamino)methyl)-1H-imidazo[4,5-c]quinolin-1-yl)butyl)(1,1-dioxidothietan-3-yl)carbamate]: the minimal effective concentration with human PBMCs (setting [3]) turned out to be 0.1 µM.

`CCc1nc2c(N)nc3ccccc3c2n1CCCCN(C(N)=O)C1CS(=O)(=O)C1` [Example 9, 1-(4-(4-Amino-2-ethyl-1H-imidazo[4,5-c]quinolin-1-yl)butyl)-1-(1,1-dioxidothietan-3-yl)urea]: in the assay on human PBMCs (setting [3]), the minimal effective concentration is 0.1 µM.

For the compound `CCc1nc2c(N)nc3ccccc3c2n1CCCCN(C(C)=O)C1CS(=O)(=O)C1` [Example 7, N-(4-(4-Amino-2-ethyl-1H-imidazo[4,5-c]quinolin-1-yl)butyl)-N-(1,1-dioxidothietan-3-yl)acetamide], the “peak plasma IFN-α concentration” value in the assay on IFN-α secretion (single dose 0.3 mg/kg (smallest dose tested)) is “about 5000 pg/ml”; in the assay with IFN-α secretion (single dose 10 mg/kg), “about 30,000 pg/ml”. The minimal effective concentration in the assay on human PBMCs (setting [3]) came to 0.1 µM.

Regarding `CCc1nc2c(N)nc3ccccc3c2n1CCCCN(C(N)=O)C1CCS(=O)(=O)C1` (stereo not drawn) [9′, reference compound], in the assay with human PBMCs (setting [2]), the minimal effective concentration turned out to be 0.3 µM.

Turning to `COCCc1nc2c(N)nc3ccccc3c2n1CCCCN(C(=O)OC)C1CCS(=O)(=O)C1` (stereo not drawn) [14′, reference compound], in the assay with human PBMCs (setting [2]), the minimal effective concentration was 0.01 µM.

With `CCc1nc2c(N)nc3ccccc3c2n1CCCCN(C(C)=O)C1CCS(=O)(=O)C1` (stereo not drawn) [7′, N-[4-(4-amino-2-ethyl-1H-imidazo[4,5-c]quinolin-1-yl)butyl]-N-(1,1-dioxidotetrahydro-3-thienyl)acetamide, reference compound], in the assay on human PBMCs (setting [2]), the minimal effective concentration is 0.3 µM.

`CCNCc1nc2c(N)nc3ccccc3c2n1CCCCN(C(C)=O)C1CS(=O)(=O)C1` [Example 10, N-(4-(4-Amino-2-((ethylamino)methyl)-1H-imidazo[4,5-c]quinolin-1-yl)butyl)-N-(1,1-dioxidothietan-3-yl)acetamide]: in the assay on human PBMCs (setting [3]), the minimal effective concentration amounted to 1 µM.

For the compound `CCNCc1nc2c(N)nc3ccccc3c2n1CCCCN(C(C)=O)C1CCS(=O)(=O)C1` (stereo not drawn) [10′, reference compound], the “Minimum effective concentration IFN-α release” value in the assay on human PBMCs (comparative compounds) was “inactive”.

Take `COCCc1nc2c(N)nc3ccccc3c2n1CCCCN(C(C)=O)C1CS(=O)(=O)C1` [Example 13, N-(4-(4-Amino-2-(2-methoxyethyl)-1H-imidazo[4,5-c]quinolin-1-yl)butyl)-N-(1,1-dioxidothietan-3-yl)acetamide]: in the assay with human PBMCs (setting [3]), the minimal effective concentration came out at 0.01 µM.

Consider `COCCc1nc2c(N)nc3ccccc3c2n1CCCCN(C(=O)OC)C1CS(=O)(=O)C1` [Example 14, Methyl (4-(4-amino-2-(2-methoxyethyl)-1H-imidazo[4,5-c]quinolin-1-yl)butyl)(1,1-dioxidothietan-3-yl)carbamate], for which, in the assay on human PBMCs (setting [3]), the minimal effective concentration was 0.001 µM.

Turning to `CCNCc1nc2c(N)nc3ccccc3c2n1CCCCN(C(N)=O)C1CCS(=O)(=O)C1` (stereo not drawn) [12′, reference compound], the minimal effective concentration in the assay on human PBMCs (setting [2]) was determined as 10 µM.
